Drawing on patent US20240059703A1 (AMGEN INC., priority 2021, published 2024), this text covers IC50 for 29 compounds.

Chain of KRAS G12C (P01116 other isoform, or with tags, fused parts or gaps G12C/C118A): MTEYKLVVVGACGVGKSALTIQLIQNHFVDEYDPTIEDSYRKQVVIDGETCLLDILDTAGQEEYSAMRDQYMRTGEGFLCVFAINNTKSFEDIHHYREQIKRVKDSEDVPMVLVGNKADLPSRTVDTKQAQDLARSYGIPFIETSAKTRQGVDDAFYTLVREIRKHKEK

The first experiment concerns the target KRAS G12C (Homo sapiens (Human), UniProt P01116, C118A/G12C). Description: 2 h coupled exchange assay. Particulars: Avg 2 h Coupled exchange IC50, 2 h compound pre-incubation. It counts as biochemical. As for the experimental part: The term “2 h coupled exchange assay” or “20 h coupled exchange assay” as used herein refers to the assay described in the Section entitled “BIOLOGICAL EVALUATION.”
On to `C=CC(=O)N1CC2(CCN(c3nc4c(c(-c5cc(O)ccc5C)c3F)COC(C)(C)C4)C2)C1` [Example 14-53, 1-(6-(3-fluoro-4-(5-hydroxy-2-methylphenyl)-7,7-dimethyl-7,8-dihydro-5H-pyrano[4,3-b]pyridin-2-yl)-2,6-diazaspiro[3.4]octan-2-yl)-2-propen-1-one], for which the IC50 – broadly, the midpoint of a concentration-inhibition curve – came out at 360 nM.
On to `C=CC(=O)N1CC2(CCN(c3nc4c(c(-c5cccc6cn[nH]c56)c3C#N)C[C@H]3C[C@@H]4C3(C)C)C2)C1` (single isomer, unassigned) [Example 14-28], for which half-maximal inhibition (IC50) was put at 886 nM.
Take `C=CC(=O)N1CC2(CCN(c3nc4c(c(-c5c(C)ccc6cnn(C)c56)c3F)COC(C)(C)C4)C2)C1` [Example 14-71, 1-(6-(4-(1,6-dimethyl-1H-indazol-7-yl)-3-fluoro-7,7-dimethyl-7,8-dihydro-5H-pyrano[4,3-b]pyridin-2-yl)-2,6-diazaspiro[3.4]octan-2-yl)-2-propen-1-one]: the IC50 was determined as 781 nM.
In turn, `C=CC(=O)N1CC2(CCN(c3nc4cc(-c5ccnn5C)ccc4c(-c4cc(O)ccc4F)c3C)C2)C1` [Example 16-11, 1-(6-(4-(2-fluoro-5-hydroxyphenyl)-3-methyl-7-(1-methyl-1H-pyrazol-5-yl)-2-quinolinyl)-2,6-diazaspiro[3,4]octan-2-yl)-2-propen-1-one] registered an IC50 of 347 nM.
In turn, `C=CC(=O)N1CC2(CCN(c3nc4c(c(-c5c(C)ccc6[nH]ncc56)c3F)C[C@H]3C[C@@H]4C3(C)C)C2)C1` (single isomer, unassigned) [Example 14-74] returned a 50% inhibitory concentration (IC50) of 1560 nM.
Regarding `C=CC(=O)N1CC2(CCN(c3nc4c(c(-c5c(C)ccc6cn[nH]c56)c3F)COC(C)(C)C4)C2)C1` [Example 14-54, 1-(6-(3-fluoro-7,7-dimethyl-4-(6-methyl-1H-indazol-7-yl)-7,8-dihydro-5H-pyrano[4,3-b]pyridin-2-yl)-2,6-diazaspiro[3.4]octan-2-yl)-2-propen-1-one], the half-maximal inhibitory concentration (IC50) was found to be 349 nM.
`C=CC(=O)N1CC2(CCN(c3nc4cc(-c5ccnn5C)ccc4c(-c4cc(O)c(F)cc4F)c3C)C2)C1` [Example 16-12, 1-(6-(4-(2,4-difluoro-5-hydroxyphenyl)-3-methyl-7-(1-methyl-1H-pyrazol-5-yl)-2-quinolinyl)-2,6-diazaspiro[3.4]octan-2-yl)-2-propen-1-one]: the IC50 was found to be 488 nM.
On the same count and under the same terms, under `C=CC(=O)N1CC2(CCN(c3nc4cc(-n5ccnc5C)ccc4c(-c4ccccc4Cl)c3C)C2)C1` [Example 15-4, 1-(6-(4-(2-chlorophenyl)-3-methyl-7-(2-methyl-1H-imidazol-1-yl)-2-quinolinyl)-2,6-diazaspiro[3.4]octan-2-yl)-2-propen-1-one] stands 280 nM; under `C=CC(=O)N1CC2(CCN(c3nc4c(c(-c5cccc6cc(O)ccc56)c3F)COC(C)(C)C4)C2)C1` (single isomer, unassigned) [Example 14-67, (M)-1-(6-(3-fluoro-4-(6-hydroxy-1-naphthalenyl)-7,7-dimethyl-7,8-dihydro-5H-pyrano[4,3-b]pyridin-2-yl)-2,6-diazaspiro[3.4]octan-2-yl)-2-propen-1-one], 640 nM.

The same experiment, now with this note: Avg 2 h Coupled exchange IC50, 2 h compound pre-incubation, SOS-mediated nucleotide exchange.
Take `C=CC(=O)N1CC2(CCN(c3nc4c(c(-c5c(C)ccc6nonc56)c3C#N)C[C@H]3C[C@@H]4C3(C)C)C2)C1` [Example 12-26, (1R,9R)-10,10-dimethyl-6-(5-methyl-2,1,3-benzoxadiazol-4-yl)-4-(2-(2-propenoyl)-2,6-diazaspiro[3.4]octan-6-yl)-3-azatricyclo[7.1.1.0^2,7] undeca-2,4,6-triene-5-carbonitrile]: half-maximal inhibition (IC50) required 687 nM.
Consider `C=CC(=O)N1CC2(CCN(c3nc4c(c(-c5cc(O)ccc5Cl)c3C#N)C[C@H]3C[C@@H]4C3(C)C)C2)C1` (single isomer, unassigned) [Example 2-75], for which half-maximal inhibition (IC50) was put at 454 nM.
For `C=CC(=O)N1CC2(CCN(c3nc4c(c(-c5c(C)ccc6cnn(C)c56)c3C)CCC(C)(C)C4)C2)C1` (single isomer, unassigned) [Example 2-20, (M)-1-(6-(4-(1,6-dimethyl-1H-indazol-7-yl)-3,7,7-trimethyl-5,6,7,8-tetrahydro-2-quinolinyl)-2,6-diazaspiro[3.4]octan-2-yl)-2-propen-1-one], the 50% inhibitory concentration (IC50) was 10500 nM.
`C=CC(=O)N1CC2(CCN(c3nc4c(c(-c5c(C)ccc6cnn(C)c56)c3C#N)CCC3CC43)C2CO)C1` (centres unmarked) [Example 13-63] yielded a half-inhibitory concentration (IC50) of 145 nM.
Compound `C=CC(=O)N1CC2(CCN(c3nc4c(c(-c5c(O)ccc6ccccc56)c3C#N)C[C@H]3C[C@@H]4C3)C2)C1` (single isomer, unassigned) [Example 13-37] displayed an IC50 of 31700 nM.
For the compound `C=CC(=O)N1CC2(CCN(c3nc4c(c(-c5cc(O)cc6ccncc56)c3C#N)C[C@H]3C[C@@H]4C3(C)C)C2)C1` [Example 2-41, (1R,9R)-6-(6-hydroxy-8-isoquinolinyl)-10,10-dimethyl-4-(2-(2-propenoyl)-2,6-diazaspiro[3.4]octan-6-yl)-3-azatricyclo[7.1.1.0^2,7]undeca-2,4,6-triene-5-carbonitrile], 113 nM corresponded to half-maximal inhibition (IC50).
Consider `C=CC(=O)N1CC2(CCN(c3nc4c(c(-c5cc(CO)ccc5Cl)c3C#N)C[C@H]3C[C@@H]4C3(C)C)C2)C1` [Example 2-65, (1R,9R)-6-(2-chloro-5-(hydroxymethyl)phenyl)-10,10-dimethyl-4-(2-(2-propenoyl)-2,6-diazaspiro[3.4]octan-6-yl)-3-azatricyclo[7.1.1.0^2,7]undeca-2,4,6-triene-5-carbonitrile], for which the half-maximal inhibitory concentration (IC50) came out at 735 nM.
As to `C=CC(=O)N1CC2(CCN(c3cc4c(c(-c5c(C)ccc6cnn(C)c56)c3Cl)OCCC4)C2)C1` [Example 2-102, 1-(6-(7-chloro-8-(1,6-dimethyl-1H-indazol-7-yl)-3,4-dihydro-2H-chromen-6-yl)-2,6-diazaspiro[3.4]octan-2-yl)-2-propen-1-one], the IC50 is 70 nM.
The same measure, in the same setting: the result for `C=CC(=O)N1CC2(CCN(c3nc4c(c(-c5c(C)c(Cl)cc6cnn(C)c56)c3C)CCN(C(C)C)C4)C2)C1` (single isomer, unassigned) [Example 12-24, (M)-1-(6-(4-(5-chloro-1,6-dimethyl-1H-indazol-7-yl)-3-methyl-7-(2-propanyl)-5,6,7,8-tetrahydro-1,7-naphthyridin-2-yl)-2,6-diazaspiro[3.4]octan-2-yl)-2-propen-1-one] reads 50 nM; that for `C=CC(=O)N1CC2(CCN(c3nc4c(c(-c5c(C)ccc6cnn(C)c56)c3C#N)CO[C@H](C3CC3)C4)C2)C1` (single isomer, unassigned) [Example 13-121], 849 nM.
`C=CC(=O)N1CC2(CCN(c3nc4c(c(-c5c(C)c(Cl)cc6[nH]ncc56)c3Cl)COC(C)(C)C4)C2)C1` [Example 2-92, 1-(6-(3-chloro-4-(6-chloro-5-methyl-1H-indazol-4-yl)-7,7-dimethyl-7,8-dihydro-5H-pyrano[4,3-b]pyridin-2-yl)-2,6-diazaspiro[3.4]octan-2-yl)-2-propen-1-one] had an IC50 of 21 nM.
In turn, `C=CC(=O)N1CC2(CCN(c3nc4ccccc4c(-c4c(C)ccc5[nH]ncc45)c3C)C2)C1` [Example 8, 1-(6-(3-Methyl-4-(5-methyl-1H-indazol-4-yl)quinolin-2-yl)-2,6-diazaspiro[3.4]octan-2-yl)prop-2-en-1-one] came in with an IC50 of 1270 nM.
On the same count and under the same terms, under `C=CC(=O)N1CC2(CCN(c3nc4c(c(-c5c(C)ccc6[nH]ncc56)c3C#N)OC3(COC3)C4)C2)C1` [Example 13-107, 7-(5-methyl-1H-indazol-4-yl)-5-(2-(2-propenoyl)-2,6-diazaspiro[3.4]octan-6-yl)-3H-spiro[furo[3,2-b]pyridin-2,3′-oxetane]-6-carbonitrile] stands 702 nM.
Take `C=CC(=O)N1CC2(CCN(c3nc4c(c(-c5ccccc5Cl)c3C#N)CC(C)(C)C4)C2)C1` [Example 13-23, 4-(2-chlorophenyl)-6,6-dimethyl-2-(2-(2-propenoyl)-2,6-diazaspiro[3.4]octan-6-yl)-6,7-dihydro-5H-cyclopenta[b]pyridine-3-carbonitirle]: it took 769 nM to reach half-maximal inhibition (IC50).
Consider `C=CC(=O)N1CC2(CCN(c3nc4c(c(-c5cc(O)cc6ccccc56)c3C#N)C[C@H]3C[C@@H]4C3(C)C)C2)C1` (single isomer, unassigned) [Example 13-130], for which the IC50 came out at 13100 nM.
On to `C=CC(=O)N1CC2(CCN(c3nc4c(c(-c5c(C)ccc6cnn(C)c56)c3C#N)C[C@H]3C[C@@H]4C3(C)C)[C@H]2CO)C1` [Example 13-62, (1R,9R)-6-(1,6-dimethyl-1H-indazol-7-yl)-4-((5R)-5-(hydroxymethyl)-2-(2-propenoyl)-2,6-diazaspiro[3.4]octan-6-yl)-10,10-dimethyl-3-azatricyclo[7.1.1.0^2,7]undeca-2,4,6-triene-5-carbonitrile], for which half-maximal inhibition (IC50) was put at 334 nM.
As to `Cc1ccc2[nH]ncc2c1-c1c(C#N)c(N2CCC3(CN(C(=O)/C=C/CN(C)C)C3)C2)cc2c1COCC2` [Example 2-94, 6-(2-((2E)-4-(dimethylamino)-2-butenoyl)-2,6-diazaspiro[3.4]octan-6-yl)-8-(5-methyl-1H-indazol-4-yl)-3,4-dihydro-1H-2-benzopyran-7-carbonitrile], the concentration for half-maximal inhibition (IC50) was found to be 610 nM.
In turn, `C=CC(=O)N1CC2(CCN(c3nc4c(c(-c5cccc(F)c5O)c3C#N)C[C@H]3C[C@@H]4C3(C)C)C2)C1` (single isomer, unassigned) [Example 2-71] registered an IC50 of 20300 nM.
On the same count and under the same terms, the result for `C=CC(=O)N1CC2(CCN(c3nc4c(c(-c5c(C)ccc6cn[nH]c56)c3C)CCC(C)(C)C4)C2)C1` (single isomer, unassigned) [Example 2-24, (P)-1-(6-(3,7,7-trimethyl-4-(6-methyl-1H-indazol-7-yl)-5,6,7,8-tetrahydro-2-quinolinyl)-2,6-diazaspiro[3.4]octan-2-yl)-2-propen-1-one] reads 119 nM; that for `C=CC(=O)N1CC2(CCN(c3nc4c(c(-c5cc(F)c(O)c6ccccc56)c3C#N)COC(C)(C)C4)C2)C1` [Example 12-28, 4-(3-fluoro-4-hydroxy-1-naphthalenyl)-7,7-dimethyl-2-(2-(2-propenoyl)-2,6-diazaspiro[3.4]octan-6-yl)-7,8-dihydro-5H-pyrano[4,3-b]pyridine-3-carbonitrile], 263 nM.
